Reference: patent publication EP4813992A1, “POLYARYL DERIVATIVE AND USE THEREOF” (Hangzhou HealZen Therapeutics Co., Ltd., priority 2023, dated 2025)
pIC50: −log10 of the molar value.

Key:
HPK1 kinase [1] = molecular target: T1, HPK1 kinase (Homo sapiens, UniProt Q92918); test: Lantha screen assay, inhibitory effect on HPK1 kinase; format: biochemical; conditions: initial compound concentration 1 µM
How it was run: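 Kinase pre-incubated with compound for 10 min at room temperature in 50 mM HEPES pH 7.5, 10 mM MgCl2, 4 mM DTT, 0.01% Tween-20, 0.01% BSA. Fluorescein-PKC substrate plus ATP then added for 90 min, stopped with antibody/EDTA for 60 min. Top concentration 1 µM; IC50 from four-parameter fit of inhibition vs log concentration.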

[2] = Pharmacokinetic properties in SD rats after gavage; format: in vivo; conditions: rat, po, 10 mg/kg, plasma
Description: The test compound is administered to SD rats by gavage at a dose of 10 mg/kg. Blood samples are collected at 0 h (before administration) and at 0.083, 0.25, 1, 2, 4, 6, 8, and 24 h after oral gavage administration. The samples are placed in anticoagulant tubes containing heparin sodium, and the mixture is thoroughly vortexed and centrifuged at 6000 rpm for 3 minutes. Plasma concentrations are determined by LC-MS/MS, and relevant pharmacokinetic parameters are calculated using Phoenix WinNonlin 8.2.0 pharmacokinetic software. Table 4 Pharmacokinetic properties of the compounds of the invention

HPK1/GLK = test: Selectivity of degrading HPK1/GLK in Jurkat cells (Western blot, 24 h); format: cell-based; conditions: HPK1/GLK Fold = DC50 (HPK1) / DC50 (GLK)
Description: • 1) Cell plating: Cells are resuscitated, Jurkat cell lines in good growth condition are selected, and cells in the logarithmic growth phase are collected and counted; cell suspensions are seeded into 12 or 24-well plates (20W/well) and incubated overnight at 37°C in a 5% CO2 incubator. • 2) Preparation of compounds to be tested: The compounds to be tested are serially diluted with DMSO according to the experimental requirements and added to the corresponding cell wells, to be incubated at 37°C in a 5% CO2 incubator for 24 h. • 3) Preparation of samples: After the reaction of the compound to be tested is completed, the cells are collected in 1.5 mL EP tubes, and centrifuged at 1500 rpm for 5 min; after the supernatant is discarded, the cells are washed once with PBS, and the BCA protein is quantified and the concentration is adjusted. The adjusted samples are added to 5*loading buffer, boiled at 100°C for 10 minutes, and then the samples are loaded after the temperature is returned to room temperature. • 4) Detection of samples: Electrophoresis is performed using 10% SDS-PAGE with a sample loading volume of 10 µL/well. After the membrane transfer is completed, the samples are blocked with 5% skim milk at room temperature for 1 h. After the residual blocking solution is washed away with TBST, HPK1 and GLK antibodies are added for incubation overnight at 4°C. Washing is performed 3 more times with TBST on a shaker, 5 minutes each time. After washing is completed, the secondary antibody is added for incubation at room temperature in a shaker for 1 hour; then, washing is performed 3 more times with TBST on a shaker, 5 minutes each time; finally, the membrane is soaked in TBST and then subjected to chemiluminescence development. • 5) Data Processing: After the PVDF membrane is developed, the data are exported and plotted using Imang J, and the gray values of the protein bands are analyzed using Image J software; the DC50 curve is fitted using Graphpad Prism 9 software to obtain the results of the selectivity of the compound in degrading HPK1/GLK: HPK1/GLK Fold = DC50 (HPK1) / DC50 (GLK) . Table 3 Selectivity of the compounds of the invention in degrading HPK1/GLK

HPK1 kinase [3] = molecular target: T1, HPK1 kinase; test: Activity of degrading HPK1 in Jurkat cells (Western blot, 24 h); format: cell-based; set-up: endogenous in cells; host or cells: Jurkat; conditions: HPK1 protein degradation, class symbols
Description: The adjusted samples are added to 5*loading buffer, boiled at 100°C for 10 minutes, and then the samples are loaded after the temperature is returned to room temperature. • 4) Detection of samples: Electrophoresis is performed using 10% SDS-PAGE with a sample loading volume of 8 µL/well. After the membrane transfer is completed, the samples are blocked with 5% BSA at room temperature for 1 h. After the residual blocking solution is washed away with TBST, HPK1 and GAPDH antibodies are added for incubation overnight at 4°C. Washing is performed 3 more times with TBST on a shaker, 10 minutes each time. After washing is completed, the secondary antibody is added for incubation at room temperature for 1 hour; then, washing is performed 3 more times with TBST on a shaker, 10 minutes each time; finally, ECL exposure solution is used to develop and image the bands to detect changes in HPK1 protein.

T1 sequence (Q92918 whole entry): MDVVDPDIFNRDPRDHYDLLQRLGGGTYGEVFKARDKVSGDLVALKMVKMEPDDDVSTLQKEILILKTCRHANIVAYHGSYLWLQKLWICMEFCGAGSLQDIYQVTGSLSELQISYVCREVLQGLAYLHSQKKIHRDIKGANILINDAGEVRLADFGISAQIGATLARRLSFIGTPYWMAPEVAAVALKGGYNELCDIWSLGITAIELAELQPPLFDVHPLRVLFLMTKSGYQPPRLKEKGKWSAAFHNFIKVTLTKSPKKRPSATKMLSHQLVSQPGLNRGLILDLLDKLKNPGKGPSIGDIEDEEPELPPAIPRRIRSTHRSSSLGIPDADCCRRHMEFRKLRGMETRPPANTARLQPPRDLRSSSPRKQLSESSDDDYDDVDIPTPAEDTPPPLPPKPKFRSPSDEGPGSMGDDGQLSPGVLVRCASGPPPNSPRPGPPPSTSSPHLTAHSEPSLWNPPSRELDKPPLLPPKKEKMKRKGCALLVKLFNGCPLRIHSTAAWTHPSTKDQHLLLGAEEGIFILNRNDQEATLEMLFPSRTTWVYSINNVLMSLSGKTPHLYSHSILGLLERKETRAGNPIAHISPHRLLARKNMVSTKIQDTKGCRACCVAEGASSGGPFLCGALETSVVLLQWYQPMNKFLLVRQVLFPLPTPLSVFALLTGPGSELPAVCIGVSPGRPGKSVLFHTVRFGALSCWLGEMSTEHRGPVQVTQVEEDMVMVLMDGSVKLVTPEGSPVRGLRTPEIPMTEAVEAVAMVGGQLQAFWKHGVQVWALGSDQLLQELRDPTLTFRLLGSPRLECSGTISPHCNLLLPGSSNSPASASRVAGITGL

## Cc1cc(N2CC(CN3CC=C(c4c(C)cc(-c5cnc6[nH]cc(-c7ccc(C(=O)N(C)C)cc7)c6n5)cc4C)CC3)C2)ccc1N1CCC(=O)NC1=O [compound 014]
HPK1 kinase [1]
  pIC50: > 8.00
[2]
  AUC: 11400 ng·h/mL
HPK1/GLK
  HPK1/GLK Fold: ++++ (1000≤Fold)
HPK1 kinase [3]
  DC50: < 10 nM

## Cc1cc(-c2cnc3[nH]cc(-c4ccc(C(=O)N(C)C)cc4)c3n2)cc(C)c1C1=CCN(CC2CN(c3ccc(N4CCC(=O)NC4=O)c(F)c3)C2)CC1 [compound 049]
HPK1 kinase [1]
  pIC50: > 8.00
[2]
  AUC: 9570 ng·h/mL
HPK1/GLK
  HPK1/GLK Fold: ++++ (1000≤Fold)
HPK1 kinase [3]
  DC50: < 10 nM

## Cc1cc(-c2cnc3[nH]cc(-c4ccc(C(=O)N(C)C)cc4)c3n2)cc(C)c1C1=CCN(CC2CN(c3cnn(C4CCC(=O)NC4=O)c(=O)c3)C2)CC1 (stereo not drawn) [compound 085]
HPK1 kinase [1]
  pIC50: > 8.00
[2]
  AUC: 8530 ng·h/mL
HPK1/GLK
  HPK1/GLK Fold: ++++ (1000≤Fold)
HPK1 kinase [3]
  DC50: < 10 nM

## Cc1cc(-c2cnc3[nH]cc(-c4ccc(C(=O)N(C)C)cc4)c3n2)cc(C)c1C1=CCN(CC2CN(c3ccc(NC4CCC(=O)NC4=O)cc3F)C2)CC1 (stereo not drawn) [compound 052]
[2]
  AUC: 6300 ng·h/mL
HPK1/GLK
  HPK1/GLK Fold: ++++ (1000≤Fold)
HPK1 kinase [3]
  DC50: < 10 nM

## Cc1cc(-c2cnc3[nH]cc(-c4ccc(C(=O)N(C)C)cc4)c3n2)cc(C)c1C1=CCN(CC#Cc2cccc3c(C4CCC(=O)NC4=O)coc23)CC1 (stereo not drawn) [compound 024]
HPK1 kinase [1]
  pIC50: > 8.00
[2]
  AUC: 12000 ng·h/mL
HPK1/GLK
  HPK1/GLK Fold: ++++ (1000≤Fold)
HPK1 kinase [3]
  DC50: < 10 nM

## Cc1cc(-c2c[nH]c3ncc(-c4cc(C)c(C5=CCN(CC6CN(c7ccc(N8CCC(=O)NC8=O)c(F)c7)C6)CC5)c(C)c4)nc23)c(C)s1 [compound 150]
HPK1 kinase [1]
  pIC50: > 8.00
[2]
  AUC: 13100 ng·h/mL
HPK1/GLK
  HPK1/GLK Fold: ++++ (1000≤Fold)
HPK1 kinase [3]
  DC50: < 10 nM

## Cc1cc(-c2cnc3[nH]cc(-c4ccc(C(=O)N(C)C)cc4)c3n2)cc(C)c1C1=CCN(CC2CN(c3ccc(C(=O)NC4CCC(=O)NC4=O)nc3)C2)CC1 (stereo not drawn) [compound 016]
HPK1 kinase [1]
  pIC50: > 8.00
[2]
  AUC: 5000 ng·h/mL
HPK1/GLK
  HPK1/GLK Fold: ++++ (1000≤Fold)
HPK1 kinase [3]
  DC50: < 10 nM

## Cc1cc(-c2cnc3[nH]cc(-c4ccc(C(=O)N(C)C)cc4)c3c2)cc(C)c1C1=CCN(CC2CN(c3ccc(N4CCC(=O)NC4=O)c(F)c3)C2)CC1 [compound 144]
HPK1 kinase [1]
  pIC50: > 8.00
[2]
  AUC: 5750 ng·h/mL
HPK1/GLK
  HPK1/GLK Fold: ++++ (1000≤Fold)
HPK1 kinase [3]
  DC50: < 10 nM

## Cc1cc(-c2cnc3[nH]cc(-c4ccc(C(=O)N(C)C)cc4)c3n2)cc(C)c1C1=CCN(CC2CN(c3cc4c(cc3F)c(N3CCC(=O)NC3=O)nn4C)C2)CC1 [compound 062]
HPK1 kinase [1]
  pIC50: > 8.00
[2]
  AUC: 9920 ng·h/mL
HPK1/GLK
  HPK1/GLK Fold: ++++ (1000≤Fold)

## COc1cc(-c2cnc3[nH]cc(-c4ccc(C(=O)N(C)C)cc4)c3n2)ccc1C1=CCN(CC2CN(c3ccc(N4CCC(=O)NC4=O)c(C)c3)C2)CC1 [compound 135]
HPK1 kinase [1]
  pIC50: > 8.00
[2]
  AUC: 5480 ng·h/mL
HPK1/GLK
  HPK1/GLK Fold: ++++ (1000≤Fold)
HPK1 kinase [3]
  DC50: < 10 nM

## Cc1cc(-c2cnc3[nH]cc(-c4cnn5c4CCC5)c3n2)cc(C)c1C1=CCN(CC2CN(c3ccc(N4CCC(=O)NC4=O)c(F)c3)C2)CC1 [compound 170]
HPK1 kinase [1]
  pIC50: > 8.00
[2]
  AUC: 12700 ng·h/mL
HPK1/GLK
  HPK1/GLK Fold: ++++ (1000≤Fold)
HPK1 kinase [3]
  DC50: < 10 nM
